Laboratory results taken from article PMC9969401, “Discovery of 2-(3-Benzamidopropanamido)thiazole-5-carboxylate Inhibitors of the Kinesin HSET (KIFC1) and the Development of Cellular Target Engagement Probes” (Journal of Medicinal Chemistry, 2023).
pIC50: −log10 of the molar value.

Columns and labels:
HSET in DLD1 4N cells = molecular target: T1, HSET in DLD1 4N cells (Homo sapiens, UniProt Q9BW19); test: Click probe localization target engagement imaging in DLD1 4N cells; format: cell-based; conditions: DLD1 4N cells treated with 40
T1 construct: overlapped with the signal from the antibody-probed endogenous HSET protein; endogenous in cells; host or cells: DLD1 4N cells
T1 sequence (Q9BW19 1-673): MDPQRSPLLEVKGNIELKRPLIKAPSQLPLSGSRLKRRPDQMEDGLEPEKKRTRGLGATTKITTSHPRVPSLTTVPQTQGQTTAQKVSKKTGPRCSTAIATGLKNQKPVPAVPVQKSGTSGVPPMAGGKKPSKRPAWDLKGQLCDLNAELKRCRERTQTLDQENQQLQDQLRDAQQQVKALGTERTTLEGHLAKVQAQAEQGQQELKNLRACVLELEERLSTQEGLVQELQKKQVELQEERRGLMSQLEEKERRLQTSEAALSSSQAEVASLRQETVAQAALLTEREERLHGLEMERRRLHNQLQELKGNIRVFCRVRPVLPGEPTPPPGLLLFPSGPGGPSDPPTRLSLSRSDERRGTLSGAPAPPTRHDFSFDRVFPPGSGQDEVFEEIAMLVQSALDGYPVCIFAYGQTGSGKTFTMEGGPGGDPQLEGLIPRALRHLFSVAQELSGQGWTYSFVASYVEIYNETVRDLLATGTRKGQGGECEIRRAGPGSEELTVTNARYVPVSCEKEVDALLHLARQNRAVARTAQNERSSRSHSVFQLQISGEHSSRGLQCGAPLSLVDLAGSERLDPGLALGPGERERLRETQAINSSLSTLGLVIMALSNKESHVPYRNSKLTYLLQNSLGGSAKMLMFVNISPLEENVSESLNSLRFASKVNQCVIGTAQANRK
Description: (§1) The Cy-5 tetrazine dye selected for this experiment is not cell-permeable, thus fixation and permeabilization of cells were necessary prior to its addition. Experiments were conducted in DLD1 4N cells and, as a negative control, isogenic 2N DLD1 HSET KO cells in which HSET expression was prevented by the disruption of the HSET gene using CRISPR. Cells were treated first with proTAME for 2 h to accumulate mitotic events, followed by treatment with the TCO probe 40 for 45 min. The live cells were then fixed and permeabilized before treatment with the tetrazine-Cy5 dye and incubation to allow the IEDDA reaction to occur. Additionally, the cells were stained for the endogenous HSET protein using indirect immunofluorescence and imaged to observe the fluorescence from both the TCO probe and antibody-labeled HSET. […] A 3 μM concentration of the probe 40 gave an acceptable signal-to-noise ratio of around 2:1. Even under these optimal conditions, some residual uniform cytoplasmic Cy5 signal was observed within the cells. However, a clear Cy5 decoration of the mitotic spindle was seen, which overlapped with the signal from the antibody-probed endogenous HSET protein (Figures 2A and S6). […] We observed a 14–17-fold increase in signal in DLD1 4N cells treated with 40 relative to tetrazine-Cy5 alone. […] Comparing the intensity of click probe labeling coincident with the mitotic spindle in DLD1 4N cells to that in DLD1 HSET KO cells after both were treated with 40, we observed a twofold higher signal in the former.
(§2) Direct target engagement of active inhibitor 36 was measured by calculating its capacity to displace the TCO-containing probe 40. 4N DLD1 cells and DLD1 HSET KO cells (negative control) were plated in 96-well ibidi μ-Clear plates (IB-89626, ibidi). Cells were first treated for 2 h with 8 μM pro-TAME (I-440–01M, R&D system) to accumulate mitotic cells and were then treated with 8 μM MG-132 (S2619, SelleckChem) and 3 μM 40, alone or together with active inhibitor 36 in DMEM media with 1% FBS for 45 min. Cells were then washed three times in DMEM, with the second wash being incubated for 10 min to ensure the optimal reduction of unspecific compound binding. After an additional PBS wash, cells were then fixed in 4% PFA/PBS (15670799, Thermo Scientific) prior to incubation with 400 nM tetraszine-Cy5 (CLK-015-05, Jena Biosciences) in 1.5% FBS/PBS for 10 min at room temperature. Cells were permeabilized by the addition of 0.5% TritonX-100/PBS for 5 min before being stained overnight for Pericentrin (1:1500 ab28144 mouse anti-PCNT, Abcam) and KIFC1 (1:1500 12313S rabbit anti-KIFC1, Cell Signaling Technologies). Secondary antibodies Alexa Fluor 488 donkey antirabbit and Alexa Fluor 555 donkey antimouse (1:1500, A21206 and A31570, respectively, Life Technologies) were added together with 1 μg/mL DAPI (D9542, Sigma) in 1.5% FBS in PBS.
(§3) Plates were imaged at 40× using a Zeiss LSM980 confocal microscope with Airyscan 2. The subsequent analysis and quantification were performed using 3D image segmentation with the Arivis4D software. Mitotic cells were segmented by selecting for the highest density (integrated DAPI intensity/total volume), and the mitotic pole areas were segmented using the Pericentrin signal. The signal of the click probe (Cy5) and total KIFC1 (FITC) was measured on the mitotic pole area, and both were normalized to the control condition containing 40 probe alone. The ratio of probe per target (click probe pole integrated intensity signal/KIFC1 pole integrated intensity signal) was used to calculate the occupancy of the probe in the target protein and normalized to the control condition containing 40 probe alone (n > 100 for each replicate, two replicates per concentration point).

[1] = molecular target: T2, recombinant full-length HSET (Homo sapiens, UniProt Q9BW19); test: ADP-Glo HSET assay (3 μM ATP), microtubule-stimulated ATPase; format: biochemical; conditions: for pIC50: preformed microtubules, 3 μM ATP, read-out: HSET ADP-Glo IC50
T2 construct: 5 nM full-length human N-terminal His-tag HSET; His-tag (N)
T2 sequence (Q9BW19 1-673): T1 sequence (Q9BW19 1-673)
Description: (§4) The HSET or Eg5 ATPase activity was measured using the ADP-Glo Kinase Assay kit (Promega, V9102). The assays were run using final concentrations of 5 nM full-length human N-terminal His-tag HSET or 4 nM GST-tagged Eg5 motor domain protein (Cytoskeleton, EG01) and an assay buffer containing 20 mM HEPES pH 6.8, 10 mM MgCl2, 0.25 mM EGTA, 0.4 mM Triton X-100, and 1 mM DTT. Preformed microtubules (Universal Biologicals Cambridge, bovine MT001-XL, or porcine MT002-XL), which were reconstituted in 15 mM PIPES pH 7, 1 mM MgCl2, and 20 μM paclitaxel, were present at a final assay concentration of 70 μg/mL. A reaction volume of 5 μL was used in Proxiplate 384 plus white assay plates (PerkinElmer, 6008280). To measure compound inhibition, 100 nL of compound dissolved in DMSO or DMSO alone was preincubated with the HSET and microtubules for 10 min before 3 μM Ultra-Pure ATP was added to start the ATPase reaction for the 3 μM ATP HSET assay. For the 500 μM ATP HSET assay, the addition of 500 μM Ultra-Pure ATP was used. For the Eg5 ATPase assay, 4.8 μM Ultra-Pure ATP was used. All reactions were incubated at 25 °C for 80 min and then stopped by the addition of 5 μL of the ADP-Glo reagent. 10 μL of Kinase Detection Reagent was then added after a further 45 min of incubation. The luminescence was read after 45 min on a PheraStar FSX plate reader (BMG Labtech). The data processing was performed using Dotmatics Studies software package. Percentage inhibition was determined based on normalization to high controls (0% inhibition, all reagents with 100 nL of DMSO alone) and low controls (100% inhibition […], without HSET). The IC50 values for each compound were determined using a four-parameter logistic curve fit of % inhibition versus concentration.

[2] = Kinetic aqueous solubility (KSol), HPLC-UV; format: physicochemical; conditions: PBS buffer pH 7.4, 100 μM solution with 1% DMSO, HPLC with UV detection
DLD1 HSET KO cells = test: Click probe localization imaging in DLD1 HSET KO cells (negative control); format: cell-based, human; conditions: HSET nonexpressing (DLD1 HSET KO) cells
Description: as §1, §2, §3

[3] = tested on: centrosome-amplified (4NCA) DLD1 cells; test: Multipolar spindle assay (4NCA cell line); format: cell-based, human
From the text: (§5) The cellular models consisted of chromosomally stable human colon cancer DLD1 diploid (2N) and tetraploid (4N) cells, along with tetraploid centrosome -amplified (4NCA) DLD1 cells and DLD1 HSET knockout (KO) cells. DLD1 2N and 4N cells were generated and characterized as previously described.[27],[41],[42] In order to generate 4NCA cells, we used dihydro-cytochalasin B (DCB) to transiently block cytokinesis and induce tetraploidisation and centrosome amplification in DLD1 cells. Centrosome amplification in 4NCA cells is transient and therefore they were generated from 2N cells for each run of the assay.[27] The DLD1 HSET KO cells were knockout clones generated by CRISPR and validated by sequencing to have a homozygous deletion in the KIFC1 gene.
(§6) Inhibition of HSET-mediated clustering was measured using a phenotypic assay measuring the formation of multipolar metaphase spindles in DLD1 cells with (4NCA) or without (4N) centrosome amplification. 4NCA cells were generated by treating 2N DLD1 cells with 2 μΜ DCB for 24 h, washed, and released in growth media for 24 h. 4N and 4NCA DLD1 cells were plated in 96-well ibidi μ-Clear plates (IB-89626, ibidi) with a no. 1.5 polymer coverslip bottom with optimal imaging properties. To enrich the mitotic population, cells were first treated for 3.5 h with 8 μM pro-TAME (I-440-01M, R&D system), an inhibitor of APC/C that transiently arrests cells in metaphase without affecting the structure of the spindle. Following the initial arrest, cells were treated with HSET compounds in the presence of 8 μM MG-132 (S2619, SelleckChem), a proteasome inhibitor that helps to maintain the metaphase arrest, where the number of spindle poles/cell can be optimally quantified by an automated segmentation analysis.
(§7) Cells were then fixed in methanol and stained for 3 h for mitotic pole marker aurora A (1:1000 610939 mouse anti-IAK1, BD Biosciences) and phosphorylated histone H3 (1:1500 ab47297 anti-histone H3 pS10, Abcam) as a marker of mitotic cells in 1.5% FBS in PBS. Following primary antibody treatment, cells were incubated with secondary antibodies Alexa Fluor 488 goat antimouse and Alexa Fluor 555 goat antirabbit (1:1500, A11029 and A21429, respectively, Life Technologies) together with 1 μg/mL DAPI (D9542, Sigma) in 1.5% FBS in PBS. Image acquisition was performed at 10× using the GE INCELL 2200 High Content Imaging System (Cytiva) and analyzed using the InCell Investigator software. Mitotic cells were identified by high pHH3 staining and were scored as multipolar if they had more than two mitotic spindle poles. The percentage of multipolar mitoses was calculated by dividing the number of multipolar mitoses by the total of all visible mitoses in one well of a 96-well plate (n > 100 for each replicate, two replicates per concentration point).

[4] = molecular target: T3, GST-tagged Eg5 motor domain (Homo sapiens, UniProt P52732); test: ADP-Glo Eg5 assay (4.8 μM ATP); format: biochemical; conditions: preformed microtubules, 4.8 μM ATP (Table 4)
T3 construct: 4 nM GST-tagged Eg5 motor domain protein (Cytoskeleton, EG01); purchased Cytoskeleton EG01
T3 sequence (P52732 18-359 limits assumed): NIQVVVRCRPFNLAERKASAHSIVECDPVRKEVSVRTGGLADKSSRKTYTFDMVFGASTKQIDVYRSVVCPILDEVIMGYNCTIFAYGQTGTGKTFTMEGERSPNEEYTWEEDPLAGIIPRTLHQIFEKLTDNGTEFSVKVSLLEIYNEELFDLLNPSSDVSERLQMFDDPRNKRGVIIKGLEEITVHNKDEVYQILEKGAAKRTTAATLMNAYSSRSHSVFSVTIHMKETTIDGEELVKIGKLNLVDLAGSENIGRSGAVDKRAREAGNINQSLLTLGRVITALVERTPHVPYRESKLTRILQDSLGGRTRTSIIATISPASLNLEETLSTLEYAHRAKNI
Description: as §4

[5] = tested on: non-centrosome amplified DLD1 (4N) cells; test: Multipolar spindle assay (4N cell line); format: cell-based, human
From the text: as §5, §6, §7

[6] = molecular target: T2, recombinant full-length HSET; test: ADP-Glo HSET assay (500 μM ATP); format: biochemical; conditions: high ATP concentration of 500 μM; single determination or mean of two
Description: as §4

| SMILES | fold increase in signal relative to tetrazine-Cy5 alone (HSET in DLD1 4N cells) | pIC50 ([1]; mean (±SD) n ≥ 3 (37 n = 2, 38 single determination) (Table 3)) | KSol data [2] | fold increase in signal relative to tetrazine-Cy5 alone (DLD1 HSET KO cells) | % multipolarity above baseline @ 15 μM (4NCA cells) ([3]; 15 μM, 4NCA DLD1 cells (Table 4)) | % multipolarity above baseline @ 15 μM (4NCA cells) ([3]; 15 µM, 4NCA cells, supplementary CSV) | increase in mitotic spindle multipolarity (4NCA) ([3]; 15 μM, centrosome-amplified (4NCA) DLD1 cell line) | pIC50 [4] | % Multipolarity above baseline @ 15 mM (4N cells) ([5]; 15 μM, 4N cells, supplementary CSV) | effect on multipolar mitoses (4N), in words ([5]; 15 μM, non-centrosome amplified DLD1 (4N) cell line) | % multipolarity above baseline @ 15 μM (4N cells) ([5]; 4N DLD1 cells (Table 4)) | pIC50 [6] | ligand efficiency (LE) [1] | lipophilic ligand efficiency (LLE) [1] | LE ([1]; LE = −1.4Log(IC50 [M])/number of non-hydrogen atoms (Table 1)) | LLE ([1]; LLE = −Log(IC50 [M]) – cLogP (MoKa) (Table 1)) | pIC50 ([1]; mean (±SD) n ≥ 3 (Table 4)) | pIC50 ([1]; mean (±SD) n ≥ 3, >200 from a single determination (Table 1)) |
| --- | --- | --- | --- | --- | --- | --- | --- | --- | --- | --- | --- | --- | --- | --- | --- | --- | --- | --- |
| CCCOC(=O)c1sc(NC(=O)C[C@H](CCCN(C)CC#CCNC(=O)O[C@@H]2CC/C=C/CCC2)NC(=O)c2cccc(-c3noc(C)n3)c2)nc1C [Compound 40, propyl 2-((S)-6-((4-(((((S,E)-Cyclooct-4-en-1-yl)oxy)carbonyl)amino)but-2-yn-1-yl)(methyl)amino)-3-(3-(5-methyl-1,2,4-oxadiazol-3-yl)benzamido)hexanamido)-4-methylthiazole-5-carboxylate] | 14–17 fold | 7.41 | 1.1 µM | 7–8 fold | – | – | – | – | – | – | – | – | – | – | – | – | – | – |
| CCOC(=O)c1sc(NC(=O)CCNC(=O)c2cccc(-c3nnn(C)n3)c2)nc1C [Compound 18, Ethyl 4-Methyl-2-(3-(3-(2-methyl-2H-tetrazol-5-yl)benzamido)propanamido)thiazole-5-carboxylate] | – | – | – | – | 11% | 11% | ~10% | < 3.70 | 0% | no increases in multipolar mitoses | 0% | 7.07 | 0.34 | 5.4 | 0.34 | 5.4 | 7.57 | 7.57 |
